Results as given in ChEMBL document CHEMBL4334425, “Eradicating uropathogenic Escherichia coli biofilms with a ciprofloxacin-dinitroxide conjugate” (Medchemcomm, 2019).
The source made the active and inactive calls. The rule behind the calls is not given here.

Legend:
Escherichia coli [1] = test: Antibiofilm activity against Escherichia coli UTI89 incubated for 24 hrs; format: functional
Escherichia coli [2] = test: Antibacterial activity against Escherichia coli UTI89 incubated for 18 hrs by broth microdilution method; format: functional
Escherichia coli [3] = test: Antibiofilm activity against Escherichia coli UTI89 at 400 uM incubated for 24 hrs by SYTO9 and PI staining based fluorescence microscopic method; format: functional
Escherichia coli [4] = test: Potentiation of ciprofloxacin-induced antibiofilm activity against Escherichia coli UTI89 assessed as increase in ciprofloxacin-induced reduction in CFU at 80 uM incubated for 24 hrs relative to control; format: functional; design: scale not given: the % may be the effect or the level left
Escherichia coli [5] = test: Potentiation of ciprofloxacin-induced antibiofilm activity against Escherichia coli UTI89 assessed as increase in ciprofloxacin-induced log reduction in CFU at 40 uM incubated for 24 hrs; format: functional
Escherichia coli [6] = test: Antibiofilm activity against Escherichia coli UTI89 assessed as small bacterial cells at 400 uM incubated for 24 hrs by SYTO9 and PI staining based fluorescence microscopic method; format: functional, organism-based
Escherichia coli [7] = test: Ratio of MBEC for ciprofloxacin to compound for antibiofilm activity against Escherichia coli UTI89; format: functional
Escherichia coli [8] = test: Antibiofilm activity against Escherichia coli UTI89 assessed as reduction in viable bioflim associated cells at 12.5 uM incubated for 24 hrs relative to control; format: functional
Escherichia coli [9] = test: Antibiofilm activity against Escherichia coli UTI89 assessed as dead cells at 400 uM incubated for 24 hrs by SYTO9 and PI staining based fluorescence microscopic method; format: functional, organism-based
Escherichia coli [10] = test: Potentiation of ciprofloxacin-induced antibiofilm activity against Escherichia coli UTI89 assessed as increase in ciprofloxacin-induced reduction in CFU at 40 uM incubated for 24 hrs relative to control; format: functional; design: scale not given: the % may be the effect or the level left
T-24 = test: Cytotoxicity against human T24 cells assessed as reduction in cell viability incubated for 24 hrs by LDH assay; format: cell-based
Escherichia coli [11] = test: Antibiofilm activity against Escherichia coli UTI89 at 12.5 uM incubated for 24 hrs by SYTO9 and PI staining based fluorescence microscopic method; format: functional
Escherichia coli [12] = test: Antibiofilm activity against Escherichia coli UTI89 assessed as reduction in biofilm residing cells at 12.5 uM incubated for 24 hrs relative to control; format: functional; design: scale not given: the % may be the effect or the level left
Escherichia coli [13] = test: Potentiation of ciprofloxacin-induced antibiofilm activity against Escherichia coli UTI89 assessed as increase in ciprofloxacin-induced log reduction in CFU at 80 uM incubated for 24 hrs; format: functional
Escherichia coli [14] = test: Antibiofilm activity against Escherichia coli UTI89 assessed as cell filamentation at 12.5 to 25 uM incubated for 24 hrs by SYTO9 and PI staining based fluorescence microscopic method; format: functional, organism-based
Escherichia coli [15] = test: Potentiation of ciprofloxacin-induced antibiofilm activity against Escherichia coli UTI89 assessed as increase in ciprofloxacin-induced log reduction in CFU at 20 uM incubated for 24 hrs; format: functional
Escherichia coli [16] = test: Potentiation of ciprofloxacin-induced antibiofilm activity against Escherichia coli UTI89 assessed as increase in ciprofloxacin-induced reduction in CFU at 20 uM incubated for 24 hrs relative to control; format: functional; design: scale not given: the % may be the effect or the level left
Escherichia coli [17] = test: Antibacterial activity against Escherichia coli UTI89 incubated for 18 hrs in presence of 1:2 ratio of ciprofloxacin to compound by broth microdilution method; format: functional
Escherichia coli [18] = test: Antibiofilm activity against Escherichia coli UTI89 incubated for 24 hrs in presence of 1:2 ratio of ciprofloxacin to compound; format: functional
[19] = Escherichia coli, UTI89, 18 h, read-out: MIC

Structure (SMILES): CC1(C)CC(C(=O)NCCCC[C@H](N)C(=O)N2CCN(c3cc4c(cc3F)c(=O)c(C(=O)O)cn4C3CC3)CC2)CC(C)(C)N1[O]
- MBEC (Escherichia coli [1]): > 1000 µM
- MIC (Escherichia coli [2]): < 1.95 µM

Structure (SMILES): CON1C(C)(C)CC(C(=O)NCCCC[C@H](NC(=O)[C@@H](N)CCCCNC(=O)C2CC(C)(C)N(OC)C(C)(C)C2)C(=O)N2CCN(c3cc4c(cc3F)c(=O)c(C(=O)O)cn4C3CC3)CC2)CC1(C)C
- MBEC (Escherichia coli [1]): >650 µM
- MIC (Escherichia coli [2]; [19]): ≤ 81.6 µM

Structure (SMILES): CC1(C)CC(C(=O)NCCCC[C@H](NC(=O)[C@@H](N)CCCCNC(=O)C2CC(C)(C)N([O])C(C)(C)C2)C(=O)N2CCN(c3cc4c(cc3F)c(=O)c(C(=O)O)cn4C3CC3)CC2)CC(C)(C)N1[O]
- Activity (Escherichia coli [3]): 99.9%
- Activity (Escherichia coli [4]): 50%
- MBEC (Escherichia coli [1]): <=400 uM
- Activity (Escherichia coli [5]): 1.82 log10CFU
- Activity (Escherichia coli [6]): Active
- Ratio (Escherichia coli [7]): 2
- fold change (FC) (Escherichia coli [8]): 3
- Activity (Escherichia coli [9]): Active
- MIC (Escherichia coli [2]): <=10.5 uM
- Activity (Escherichia coli [10]): 93%
- IC50 (T-24): > 500 µM
- Activity (Escherichia coli [11]): >99%
- Activity (Escherichia coli [12]): 99.7%
- Activity (Escherichia coli [13]): 2.69 log10CFU
- Activity (Escherichia coli [14]): Active
- Activity (Escherichia coli [15]): 1.35 log10CFU
- Activity (Escherichia coli [16]): 98%

Structure (SMILES): CC1(C)CC(C(=O)O)CC(C)(C)N1[O]
- MIC (Escherichia coli [17]): <=0.045 uM
- MBEC (Escherichia coli [1]): >1000 µM
- MIC (Escherichia coli [2]): >1000 µM
- MBEC (Escherichia coli [18]): <=800 uM

Structure (SMILES): CON1C(C)(C)CC(C(=O)NCCCC[C@H](N)C(=O)N2CCN(c3cc4c(cc3F)c(=O)c(C(=O)O)cn4C3CC3)CC2)CC1(C)C
- MBEC (Escherichia coli [1]): >1000 µM
- MIC (Escherichia coli [2]; [19]): ≤ 30.6 µM

Structure (SMILES): O=C(O)c1cn(C2CC2)c2cc(N3CCNCC3)c(F)cc2c1=O [CIPROFLOXACIN]
- MBEC (Escherichia coli [1]): <=800 uM
- MIC (Escherichia coli [2]; [19]): ≤ 0.045 µM
